Assays:
Assay in all cases: selective drug sensitivity score (sDSS, relative to normal bone marrow) (sDSS (score)); higher = more potent and effective on the cell line relative to normal bone marrow cells
Settings in all cases: 72 h
[1] = system: RPMI-8402
[2] = system: SUP-B15
[3] = system: KASUMI-2
[4] = system: RCH-ACV
[5] = system: NALM-16
[6] = system: KASUMI-9
[7] = system: COG-LL-355h
[8] = system: COG-LL-402h
[9] = system: TMD5
[10] = system: MOLT-16
[11] = system: ALL-PO
[12] = system: NALM-6
[13] = system: MOLT-4
[14] = system: COG-LL-319h
[15] = system: MOLT-14
[16] = system: 697
[17] = system: PEER
[18] = system: MN-60
[19] = system: HPB-ALL
[20] = system: JURKAT
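Further: ALL cell lines in 384-well plates, five doses spanning 10,000-fold, each plate scaled between vehicle and 100 µmol/L benzalkonium chloride controls, sDSS an adapted area-under-curve metric.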

Row | Structure (SMILES) | selective drug sensitivity score [1] | selective drug sensitivity score [2] | selective drug sensitivity score [3] | selective drug sensitivity score [4] | selective drug sensitivity score [5] | selective drug sensitivity score [6] | selective drug sensitivity score [7] | selective drug sensitivity score [8] | selective drug sensitivity score [9] | selective drug sensitivity score [10] | selective drug sensitivity score [11] | selective drug sensitivity score [12] | selective drug sensitivity score [13] | selective drug sensitivity score [14] | selective drug sensitivity score [15] | selective drug sensitivity score [16] | selective drug sensitivity score [17] | selective drug sensitivity score [18] | selective drug sensitivity score [19] | selective drug sensitivity score [20]
1 | CCNC(=O)CCC/C=C\C[C@@H]1[C@@H](/C=C/[C@@H](O)CCc2ccccc2)[C@H](O)C[C@@H]1O [Bimatoprost] (top concentration 5500 nM) | 0 | 0 | 2.5 | 0 | 0 | 0 | 0 | 0 | 0 | 0 | 0 | 0 | 0 | 0 | 0 | 0 | 0 | 0 | 0.5 | 0
2 | CC#CC(=O)N1CCC[C@H]1c1nc(-c2ccc(C(=O)Nc3ccccn3)cc2)c2c(N)nccn12 [Acalabrutinib] (top concentration 1000 nM) | -0.1 | 3.7 | -0.1 | 1.8 | -0.1 | 1.2 | -0.1 | -0.1 | 5.9 | -0.1 | -0.1 | -0.1 | -0.1 | 0 | -0.1 | 0.8 | -0.1 | -0.1 | -0.1 | 0
3 | COc1cc(N2CCC(N3CCN(C)CC3)CC2)ccc1Nc1ncnc(Nc2ccccc2S(=O)(=O)C(C)C)n1 [ASP3026] (top concentration 10000 nM) | 0.56 | 1.16 | -4.04 | -0.74 | -2.64 | -0.84 | 1.36 | 1.76 | -1.84 | -1.54 | 5.36 | 1.86 | -0.14 | -4.04 | 1.36 | -0.84 | -0.24 | 0.66 | 1.26 | -1.54
4 | CCCOc1ccn2c(C(C)=O)cc(-c3ccccc3S(C)(=O)=O)c2c1 [GSK2801] (top concentration 10000 nM) | -0.16 | -0.36 | 4.84 | 3.24 | -0.36 | -0.36 | -0.36 | -0.36 | -0.36 | -0.16 | 0.04 | -0.36 | -0.16 | 4.44 | 2.64 | -0.16 | 0.34 | -0.36 | -0.36 | -0.26
5 | Nc1cc(COc2c(Cl)cc(C[C@H](N)C(=O)O)cc2Cl)c2oc(-c3ccccc3)nc2c1 [JPH203] (top concentration 5000 nM) | 0.5 | 0 | 0 | 4.5 | 0 | 2.2 | 1.5 | 0 | 2.1 | 0 | 0 | 0 | 0 | 0 | 0 | 0 | 0 | 0 | 0 | 0
6 | Nc1nc(N)c2nc(-c3cccc(O)c3)c(-c3cccc(O)c3)nc2n1 [TG100-115] (top concentration 10000 nM) | 0 | -0.3 | -0.4 | 5.6 | 0.5 | 1.6 | 3.7 | -0.4 | 3 | 1.1 | -0.2 | -0.4 | -0.4 | 0.6 | -0.4 | 0.7 | -0.2 | -0.4 | -0.4 | -0.3
7 | Cc1cccc(-c2nn3c(c2-c2ccnc4ccc(C(N)=O)cc24)CCC3)n1 [Galunisertib] (top concentration 1000 nM) | 0 | 0 | 0 | 0 | 0 | 1.3 | 0 | 0 | 0 | 0 | 0 | 0 | 0 | 0 | 0 | 0 | 0 | 0 | 0 | 0
8 | CNC(=O)c1cccc2cc(Oc3ccnc4cc(OCC5(N)CC5)c(OC)cc34)ccc12 [Lucitanib] (top concentration 10000 nM) | 1.88 | 3.48 | 3.48 | 6.38 | -0.62 | 6.28 | -0.62 | 3.58 | 0.98 | 3.98 | 2.08 | 1.58 | 4.18 | 1.98 | 2.28 | 5.48 | 3.08 | -0.62 | 3.18 | 2.78
9 | COc1cc2ncnc(Nc3cccc(Cl)c3F)c2cc1OC(=O)N1CCN(C)C[C@H]1C [AZD3759] (top concentration 1000 nM) | -0.04 | -0.04 | -0.04 | -0.04 | -0.04 | -0.04 | -0.04 | -0.04 | 0.06 | -0.04 | 1.26 | -0.04 | -0.04 | 0.96 | -0.04 | -0.04 | -0.04 | -0.04 | -0.04 | -0.04
